Results published in patent US7807368B2, “Cyclin-dependent kinase inhibitors as targets for opiod growth factor treatment” (priority 2006, dated 2010).
“Also recorded” adds a separate entry of the source.

Columns and labels:
SCC-1 cells = test: Flow cytometry cell cycle distribution, synchronized SCC-1 cells; type: cell-based, human; conditions: 10^-6 M OGF, 14 h
Procedure: For flow cytometry, cells were synchronized with 0.5 μg/ml nocodazole (Sigma-Aldrich) for 24 h, followed by three washes with complete media. Cells were released from growth arrest by addition of complete media or OGF-supplemented media. Synchronized cells were treated with 10^−6 M OGF for 14 h, harvested with 0.25% trypsin-EDTA (Mediatech, Herndon, Va.) and fixed with 70% ethanol at −20° C. for up to 7 days before DNA analysis. DNA content was obtained by incubating cells in PBS containing propidium iodide (0.1 mg/ml) and RNase A (0.02 mg/ml) for 15 min at 22° C. Fluorescence was measured and analyzed using a BD Biosciences FACScan flow cytometer (San Diego, Calif.) and Modfit Software (Topsham, Me.).

CAL-27 cells = test: Growth curves of CAL-27 cells transfected with p16 siRNA; type: cell-based, human
Procedure: The SCC-1 (UM-SCC-1) cell line was obtained from the University of Michigan Cancer Research Laboratory, and CAL-27 and SCC-4 cells were obtained from the American Type Culture Collection (Manassas, Va.). SCC-1 and CAL-27 cells were cultured in DMEM media, whereas SCC-4 cells were grown in 1:1 Hams F-12 DMEM media. All media was supplemented with 10% fetal bovine serum (HyClone, Logan, Utah), 1.2% sodium bicarbonate, and 5000 units/ml penicillin, 5 μg/ml streptomycin and 10 μg/ml neomycin. OGF was purchased from Sigma-Aldrich (St. Louis, Mo.), dissolved in sterile water, and used at a final concentration of 10^−6 M.
(§1) The p16-targeted siRNAs (antisense:5′ […]-3′; sense (SEQ ID NO:5): 5′ […]-3′(SEQ ID NO:6) were obtained as ready-annealed, purified duplex probes (Invitrogen, Carlsbad, Calif.). For transfection, 2×10^5 cells per well were seeded in 6-well plates containing 1 ml of serum-free media without antibiotics. In each well, 20 nM of p16-siRNA or control siRNA solutions in serum-free media were added. Cells were incubated for 4 h at 37° C. prior to the addition of OGF. Cultures were incubated for additional 20 h, and then 1 ml fresh complete media either lacking or containing OGF was added. At the indicated time points, cells were collected for growth curves or Western blotting. Three or more independent experiments were conducted. The control siRNAs were purchased from Ambion.

[1] = tested on: Rabbit Tenon's Fibroblast cells (RTCFs); test: Cell counts of Rabbit Tenon's Fibroblast cells; type: cell-based; conditions: 72 hours
Procedure: OGF in dosages ranging from 10−4 to 10^−7 M were added to 24-well cultures for 72 hours; sterile water served as control. Drug or vehicle, and media were changed daily. Cell counts of Rabbit Tenon's Fibroblast cells (RTCFs) treated with OGF (10^−7 to 10^−5 M) were 28%, 33%, and 37% smaller than controls (p<0.001).

BxPC-3 cells = test: Flow cytometry cell cycle distribution, synchronized BxPC-3 cells; type: cell-based, human; conditions: 10^-6 M OGF, 21 hours
Procedure: For flow cytometry, cells were synchronized with 67 ng/ml nocodazole (Sigma-Aldrich) for 24 hours, followed by three washes with complete media. Cells were released from growth arrest by addition of complete media or OGF supplemented complete media. Synchronized cells were treated with 10^-6 M OGF for 21 hours, harvested with 0.25% trypsin-EDTA (Mediatech, Herndon, Va.) and fixed with 70% ethanol at −20° C. for up to 7 days before DNA analysis.
DNA content was obtained by incubating cells in PBS containing propidium iodide (0.1 mg/ml) and RNase A (0.02 mg/ml) for 15 minutes at 220 C. Fluorescence was measured and analyzed using a BD Biosciences FACScan flow cytometer (San Diego, Calif.) and Modfit Software (Topsham, Me.).

p16 = test: Western blot of p16, other CKIs and Cdk4 in SCC-1 cells; type: cell-based, human
Procedure: Synchronized cells (˜2×10^6) from each treatment were solubilized in 200 μl RIPA buffer (1×PBS, 10 μM IGEPAL, 1 mg/ml SDS, 5 mg/ml deoxycholic acid), containing protease and phosphatase inhibitors (2 μg/ml aprotinin, 3 mg/ml phenylmethyl sulfonyl fluoride (PMSF), 1 mM sodium orthovanidate, 1 μM okadaic acid). Total protein concentrations were measured using the DC protein assay kit (Bio-Rad Laboratories, Hercules, Calif.). Equal amounts of protein (40 μg) were subjected to 10% SDS-PAGE followed by transfer of proteins onto polyvinylidene difluoride (Millipore, Billerica, Mass.) using standard protocols. The following antibodies were purchased from commercial sources: phospho-Rb (Ser795), phospho-Rb (Ser807/811) (Cell Signaling Technology, Beverly, Mass.); phospho-Rb (Thr821) (Biosource, Camarillo, Calif.); Cdk4, cyclin D1, p15, p16, p18, p19 (Santa Cruz Biotechnology, Santa Cruz, Calif.); total Rb, p21, p27 (BD PharMingen, San Diego, Calif.); β-actin (Clone AC-15, Sigma). The following dilutions of primary antibodies were used to detect respective proteins. 1:200 phospho-Rb (Ser795), 1:200 phospho-Rb (Ser807/811); 1:200 phospho-Rb (Thr821); 1:200 Cdk4, 1:200 cyclin D1, 1:100 p16; 1:200 total Rb, 1:200 p21, 1:100 p27. Membranes were probed with secondary anti-rabbit or anti-mouse horseradish peroxidase-conjugated antibodies (GE Healthcare-Amersham Biosciences, Piscataway, N.J.); blots were developed using a chemiluminescence Western blotting detection system (GE Healthcare-Amersham Biosciences).
To determine equal loading of total protein samples, blots were reprobed with monoclonal antibody against β-actin at a dilution of 1:2000. If necessary, membranes were stripped in stripping buffer (62.5 mM Tris-HCl and 100 mM β-mercaptoethanol/2% SDS, pH 6.7) at 50° C. before being re-probed. Means and SE were determined from 3 or more independent experiments.
To quantify expression levels or kinase activity, the optical density of each band was determined by densitometry and analyzed by QuickOne (Bio-Rad Laboratories). Each value was normalized to β-actin from the same blot. To report the changes due to OGF treatment, the fold increase was calculated by dividing the normalized value from the OGF treated samples by the normalized value of control samples at each time point; thus, increases due to OGF have values greater than one, and decreases due to OGF have values less than one.
as §1

## [Met^5]-enkephalin [OGF]
SCC-1 cells
  cells in the G2/M phase: 22.7%
  cells in the S phase: 42.7%
  percentage of cells in the G0/G1 phase: 34.6%
CAL-27 cells
  effect on growth of cells lacking p16: no inhibitory effects
[1]; 10^-4 M OGF
  decrease in cell proliferation compared to RTCFs treated with 10^-6 M OGF: 22%
  decrease in cell proliferation compared to RTCFs treated with 10^-7 M OGF: 26%
  decrease in proliferation compared to controls: 47%
[1]; 10^-5 M OGF
  Cell counts smaller than controls: 37%
[1]; 10^-6 M OGF
  Cell counts smaller than controls: 33%
[1]; 10^-7 M OGF
  Cell counts smaller than controls: 28%
BxPC-3 cells
  cells in S phase: 28.0%
  cells in the G2/M phase: 2.9%
  percentage of cells in the G0/G1 phase: 69.1%
p16; OGF treatment of SCCHN
  expression of cell cycle inhibitors p15, p18, p19, p21 and p27: no significant effect
p16; following OGF exposure
  expression of Cdk4 protein: did not change
p16; synchronized SCC-1 cells, 3 h, 10^-6 M OGF, 10^-5 M naloxone
  p16 expression: significantly upregulated; also recorded: significantly elevated
